In paper PMC12188386, “Selective CBP/EP300 Bromodomain Inhibitors: Novel Epigenetic Tools to Counter TNF-α-Driven Inflammation” (JACS Au, 2025):
Values after ≈ are worked out from the molar mass of the structure shown.

Key:
Caco-2 cells = test: bidirectional Caco-2 permeability assay; format: in vitro ADME; details: for Papp Replicate 1 / Papp Replicate 2: 120 min; for membrane permeability (Caco-2), in words: bidirectional Caco-2 assay
Experimental: (§1) Bidirectional Caco-2 Permeability Assay (provided by Cyprotex Discovery Ltd; Cheshire, UK)19 Following a standard Cyprotex procedure, Caco-2 cells (ATCC), used at passages 40–60, were seeded nt ranswe inserts at a densit f × ⁵ ce s/cm² and maintained in with media changes carried out every 2–3 days. Permeability assays were performed between days 18–22 post-seedin . pr cedures were c nducted at ° in a humidified incu at r with O₂. On the day of the assay, monolayers were prepared by rinsing both the apical and basolateral compartments with pre-warmed anks’ a anced a t uti n at the desired pH and incubated with HBSS on both sides for 30 minutes to equilibrate the compartments. The dosing solutions were obtained by diluting the test compounds in assay uffer t a c ncentrati n f with a fina O c ncentrati n f ≤ v/v and Lucifer yellow was included as a fluorescent marker to assess monolayer integrity. Analytical standards were prepared similarly, omitting the Lucifer yellow . For apical-to-basolateral (A– B) measurements, the dosing solution was applied to the apical chamber and buffer to the basolateral side, while the configuration was reversed for basolateral-to-apical (B–A) measurements. After a 120 min incubation, samples from both compartments were collected and diluted for quantification. Permeability was assessed in duplicates, and reference […]
(§2) compounds with known characteristics were included as controls. Quantification of test and control compounds was performed by LC-MS/MS using an 8-point calibration curve under Cyprotex standard analytical conditions. The initial concentration (C0) at time zero was determined from the dosing solution, and recovery was calculated based on concentrations […]
(§3) The apparent permeability coefficient (Papp) is calculated from the equation (where dQ/dt is the drug permeation rate across the cells, C0 is the concentration in the donor compartment at time zero, and A is the area of the cell monolayer):
(§4) Efflux ratio (ER) is calculated from mean A-B and B-A data: […]
(§5) Cells were fixed in situ with cold TCA: untreated cells at the time of compound addition (Tz) and treated cells 48 h after addition of compound (Ti). Cells were washed, then su f rh damine s uti n μ at . w/v in acetic acid was added to each well and incubated for 10 minutes at room temperature. After washing again, the plates were air dried and bound stain solubilized with 10 mM Trizma base before absorbance was […]
(§6) Percentage growth (%Growth) was calculated as follows:
(§7) when Ti ≥ Tz, %Growth = Ti − Tz x 100 where Ti = absorbance from compound treated cells, Tz = absorbance from untreated cells at time zero, and C = absorbance from control (DMSO) treated cells.
(§8) HEK293T, MRC5 and LP1 cells were cultured in DMEM (Gibco 41966 -029) containing 10 % or 15 % (LP1) FBS (Gibco 10270106 or Sigma F9665), 1 % non-essential amino acids (MRC5 only, […]
(§9) cultured in RPMI 1640 (Gibco 21875-034) containing 10 % FBS and 1 % P/S. All cells were grown in a humidified incubator with 5 % CO 2 at 37 °C.

[1] = bidirectional Caco-2 permeability assay; format: in vitro ADME; details: human; for Papp A→B at 120 min / Papp B→A at 120 min / efflux ratio at 120 min: Caco-2; for Papp A→B at 120 min: Direction: A-B (apical-to-basolateral); for Papp A→B at 120 min / Papp B→A at 120 min: n=2; for Papp B→A at 120 min: Direction: B-A (basolateral-to-apical); for efflux ratio at 120 min: from mean A-B and B-A data, read-out: Efflux Ratio (Papp(B-A)/Papp(A-B))
Experimental: as §1, §2, §3, §4, §5, §6, §7, §8, §9

kinetic solubility = format: physicochemical; details: PBS buffer, aqueous buffer, kinetic from dmso stock, PBS pH 7.4, 37°C, ± st. dev. between technical replicates, read-out: Kin. Sol.
Experimental: Starting from an initial concentration of 100, 50 or 20 µM, a 2-fold serial dilution of the compound (10 mM stock in DMSO) was prepared in a mixture of ACN/Buffer (PBS, pH = 7.4) 2:8, with 1% DMSO. 350 µL was transferred to a 96-Well Plate (Greiner, UV-star) then UV absorption (240-400 nm, 10 nm steps) was measured. The absorption was blank-corrected and plotted against concentration. The wavelength (λ) providing the best fitting straight line […]
was used as the calibration curve. To obtain saturated solutions of the compounds of interest, in duplicates 4.4 µL of a 10 or 5 mM stock in DMSO was added to 436 µL Buffer (PBS, pH = 7.4), to give a final concentration of 100 or 50 µM. Samples were incubated on a shaker (500 rpm) at 37°C for 90 minutes and then filtered (Millex-GV 13 mm, 0.22 µm). 304 µL of the filtrate was mixed with 76 µL of acetonitrile on a dilution plate, from which 350 µL was transferred to a UV-plate and UV-absorption was read using a SpectraMax M5 (Molecular devices). The absorbance was blank-corrected and compared to the calibration curve to […]
solubility. The wavelengths used for the calibration curve are available in Table S4.
Based on the known density of 12.5 % CAPTISOL® solution (d = 1.05755 g/mL at 25 °C), the precise weight of the resulting solution and so the required amount of water by weight was calculated. The water was added portion wise with agitation, vortexing and sonication cycles in between additions. The saturated solutions were then filtered (Millex-GV 13 mm, 0.22 µm). In duplicates, aliquots of the filtrates were taken and diluted with blank 12.5 % CAPTISOL® water solution in either a 1:14 (higher sol. compounds) or 1:7 (lower sol. compounds) ratio, 350 µL was transferred to a 96-Well Plate (Greiner, UV-star) then UV absorption (240-400 nm, 10 nm steps) was measured using a SpectraMax M5 (Molecular devices). The absorption was blank-corrected, compared to the calibration curve obtained during the solubility measurement method above and finally corrected for the dilution ratio to obtain the compound concentration in the saturated 12.5 % CAPTISOL® solution. The calculated concentrations are available in Table S4.
BROMOscan™ assays (provided by Eurofins DiscoverX, US)1,2 […]
coli host derived from the BL21 strain. E. coli were grown to log-phase and infected with T7 phage from a frozen stock (multiplicity of infection = 0.4) and incubated with shaking at 32°C until lysis (90-150 minutes). The lysates were centrifuged (5,000 x g) and filtered (0.2µm) to remove cell debris. Streptavidin-coated magnetic beads were treated with biotinylated small molecule or acetylated peptide ligands for 30 minutes at room temperature to generate affinity resins for bromodomain assays. The liganded beads were blocked with excess biotin and washed with blocking buffer (SeaBlock (Pierce), 1 % BSA, 0.05 % Tween 20, 1 mM DTT) to remove unbound ligand and to reduce non specific phage binding. Binding reactions were assembled by combining bromodomains, liganded affinity beads, and test compounds (see […]
Sodium azide, 7.4 mM DTT). All reactions were performed in polypropylene 384-well plates in a final volume of 0.02 mL. The assay plates were incubated at room temperature with […]
20). The beads were then resuspended in elution buffer (1x PBS, 0.05% Tween 20, 2 µM non-

[2] = Direction: A-B (apical-to-basolateral)
[3] = Direction: B-A (basolateral-to-apical)
[4] = Caco-2, Direction: A-B (apical-to-basolateral)
[5] = Caco-2, Direction: B-A (basolateral-to-apical)

| SMILES | Papp Replicate 1 (Caco-2 cells; [2]) | Papp Replicate 2 (Caco-2 cells; [2]) | Papp Replicate 1 (Caco-2 cells; [3]) | Papp Replicate 2 (Caco-2 cells; [3]) | membrane permeability (Caco-2), in words (Caco-2 cells) | recovery at 120 min [1, 4] [%] | recovery at 120 min [1, 5] [%] | Papp A→B at 120 min [1] [×10⁻⁶ cm/s] | Papp B→A at 120 min [1] [×10⁻⁶ cm/s] | efflux ratio at 120 min [1] | solubility kinetic at 90 min (kinetic solubility) [µM] |
| --- | --- | --- | --- | --- | --- | --- | --- | --- | --- | --- | --- |
| Cc1cc2c(NC(=O)c3cc(NC(=O)[C@H]4CCCO4)cc(-c4ccn(C)n4)c3)cccc2nn1 [Compound 5] | 0.57 10-6 cms-1 | 0.677 10-6 cms-1 | 34.2 10-6 cms-1 | 30.9 10-6 cms-1 | improved cellular permeability | 68.2 | 78 | 0.623 | 32.5 | 52.2 | 69.7 ± 0.6 (≈ 31.8 µg/mL) |
| Cc1cc2c(NC(=O)c3cc(NC(=O)c4ccco4)cc(-c4ccn(C)n4)c3)cccc2nn1 [Compound 2] | 0.565 10-6 cms-1 | 0.533 10-6 cms-1 | 28.9 10-6 cms-1 | 29.2 10-6 cms-1 | improved cellular permeability | 47 | 61.8 | 0.549 | 29 | 52.9 | 3.2 ± 1.3 (≈ 1.45 µg/mL) |
| CC(=O)Nc1cc(NC(=O)c2ccco2)cc(C(=O)Nc2cccc3nnc(C)cc23)c1 [Compound 1] | 0.0348 10-6 cms-1 | 0.0401 10-6 cms-1 | 11.6 10-6 cms-1 | 11.5 10-6 cms-1 | very low membrane permeability | 80 | 87.3 | 0.0375 | 11.5 | 307 | 22.2 ± 1.3 (≈ 9.53 µg/mL) |
